Assay [1] has as its target T1, Mushroom tyrosinase (Agaricus bisporus) (UniProt O42713+Q00024+C7FF04+C7FF05). Put plainly: Reversible inhibition of mushroom tyrosinase using L-tyrosine as substrate by Lineweaver-Burk plot analysis.
The target of assay [2] is T2, Mushroom tyrosinase (Agaricus bisporus, UniProt O42713+Q00024+C7FF04+C7FF05).
Description: Inhibition of mushroom tyrosinase using L-tyrosine as substrate
Assay [3] deals with T2, Mushroom tyrosinase. The source holds these as a separate data set.
Description: Inhibition of mushroom tyrosinase using L-DOPA as substrate
Assay [4] addresses T2, Mushroom tyrosinase. Put plainly: Non-competitive inhibition of mushroom tyrosinase using L-tyrosine as substrate by Lineweaver-Burk blot analysis.
The target in assay [5] is T1, Mushroom tyrosinase (Agaricus bisporus). Put plainly: […] inhibition of mushroom tyrosinase using L-tyrosine as substrate by Lineweaver-Burk blot analysis.

The source made the active and inactive calls. No cut-off for these calls is given here.

`CC#CCOC[C@H]1OC(OCC#CC)[C@H](OCc2ccccc2)[C@@H](OCc2ccccc2)[C@@H]1OCc1ccccc1` (stereo partly drawn): the inhibition entry in assay [1] was “Active”. In addition, the IC50 (usually the concentration needed to halve the response being measured) in assay [2] is 72 µM; in assay [3], greater than 500 µM. Further, in assay [4], the Ki – broadly, the dissociation constant of the complex between target and ligand, obtained from inhibition or displacement – amounted to 32 µM.
For `CC#CCOC1O[C@H](COCc2ccccc2)[C@@H](OCc2ccccc2)[C@H](OCc2ccccc2)[C@H]1OCc1ccccc1` (stereo partly drawn), the IC50 turned out to be 54 µM in assay [2] and 70.7 µM in assay [3]. The inhibition result in assay [5] is “Active”. In assay [4], this molecule returned a Ki of 21 µM.

For the origin of these results see ChEMBL document CHEMBL4622892, “New class of alkynyl glycoside analogues as tyrosinase inhibitors” (Bioorg Med Chem Lett, 2020).
